Test results taken from US20240208912A1 (Mirati Therapeutics, Inc., priority 2021, published 2024).
pIC50: −log10 of the molar value. Read-outs that look alike come from different tables or passages of the source.

Key:
[1] = tested on: HCT116 homozygous MTAP knockout cells; assay: Proliferation assay (CellTiter-Glo, 10 days) in HCT116 homozygous MTAP knockout cells; type: cell-based; conditions: CellTiter-Glo after 10 days of treatment, read-out: Proliferation IC50 (nM) HCT116 MTAP_KO
Method: HCT116 cells were genetically engineered to knock out the function of both MTAP alleles using a CRISPR/Cas9 system and an sgRNA targeting the MTAP gene. Following Cas9/MTAP sgRNA transduction, clones were screened to confirm that each allele of the MTAP gene had been inactivated (i.e., homozygous MTAP knock out) creating an MTAP-deficient cell.
Control samples were analyzed in parallel.
Briefly, on Day 0, 250 HCT116 parental or HCT116 homozygous MTAP knockout cell were seeded in 96 well plates in McCoy's 5A supplemented with […] fetal bovine serum and pen/strep and the cells were incubated overnight at 37° C. plus 5% CO2.
The following day, cells were treated with DMSO vehicle control or a dose response of PRMT5 inhibitors and incubated at 37 C plus 5% CO2 for five days. On Day 6, the cells were trypsinized and split 1:10 into new 96-well plates with fresh medium containing the same concentration of PRMT5 inhibitor and incubated for an additional 5 days at 37° C. plus 5% CO^2.
On Day 11, the viability of the cells was measured using a CTG assay kit (CellTiter-Glo; Promega cat.no G7573) in accordance with the manufacturer's instructions. The IC50 values for each compound after 10 days of treatment were calculated using GraphPad PRISM software.

PRMT5/MEP50 complex = biological target: T1, PRMT5/MEP50 complex (Homo sapiens, UniProt O14744); assay: PRMT5:MEP50 HotSpot Assay (full-length histone H2A substrate, plus and minus MTA); type: biochemical
T1 construct: purchased Reaction Biology Corporation
Method: The PRMT5 inhibitory activity of compounds of the present invention was determined using either a PRMT5:MEP50 FlashPlate Assay (Reaction Biology Corporation) or a PRMT5:MEP50 HotSpot Assay (Reaction Biology Corporation).
The assay uses recombinant full-length hi stone H2A as the PRMT5 substrate. […] The reaction was stopped and transferred to filter paper for detection. The amount of tritiated H2A in each sample was determined using a scintillation counter.

[2] = IC50 + 2 μM MTA, in the presence of 2 μM MTA

T1 sequence (O14744 2-637 limits assumed): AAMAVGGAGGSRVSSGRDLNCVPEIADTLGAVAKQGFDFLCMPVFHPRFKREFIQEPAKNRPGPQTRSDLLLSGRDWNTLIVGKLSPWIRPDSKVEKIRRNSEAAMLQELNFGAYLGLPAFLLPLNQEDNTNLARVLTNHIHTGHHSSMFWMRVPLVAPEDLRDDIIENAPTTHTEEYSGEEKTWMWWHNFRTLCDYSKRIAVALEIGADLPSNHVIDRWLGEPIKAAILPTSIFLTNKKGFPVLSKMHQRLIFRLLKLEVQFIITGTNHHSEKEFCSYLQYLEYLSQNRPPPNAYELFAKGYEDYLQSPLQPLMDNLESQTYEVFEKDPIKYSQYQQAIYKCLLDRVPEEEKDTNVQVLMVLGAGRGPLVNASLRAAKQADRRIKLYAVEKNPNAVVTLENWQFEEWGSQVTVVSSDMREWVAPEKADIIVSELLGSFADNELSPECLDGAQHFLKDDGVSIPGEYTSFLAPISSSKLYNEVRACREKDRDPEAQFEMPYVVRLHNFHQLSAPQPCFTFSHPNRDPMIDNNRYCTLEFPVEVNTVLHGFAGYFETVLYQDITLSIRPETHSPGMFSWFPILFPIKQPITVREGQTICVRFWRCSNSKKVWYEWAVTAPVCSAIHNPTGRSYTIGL
T1 sequence (Q9BQA1 2-342 partner limits assumed): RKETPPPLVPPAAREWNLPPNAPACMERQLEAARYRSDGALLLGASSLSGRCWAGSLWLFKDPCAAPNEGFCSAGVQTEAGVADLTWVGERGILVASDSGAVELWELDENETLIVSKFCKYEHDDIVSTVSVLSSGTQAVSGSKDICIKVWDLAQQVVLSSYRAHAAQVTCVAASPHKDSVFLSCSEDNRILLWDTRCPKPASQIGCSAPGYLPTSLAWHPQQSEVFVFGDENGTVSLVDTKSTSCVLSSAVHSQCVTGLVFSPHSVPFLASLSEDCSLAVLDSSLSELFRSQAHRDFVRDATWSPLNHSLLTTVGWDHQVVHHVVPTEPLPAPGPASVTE

Structure (SMILES) | pIC50 (PRMT5/MEP50 complex; [2]) | also measured
Cc1c(F)c(-c2c(-c3ccc4c(=O)[nH]nc(CN)c4c3)cnn2C)c(C#N)c2cc(Cl)cnc12 (atropisomer, axis not shown; (M)) [Example 16-34, (M)-6-[4-[4-(aminomethyl)-1-oxo-2H-phthalazin-6-yl]-2-methyl-pyrazol-3-yl]-3-chloro-7-fluoro-8-methyl-quinoline-5-carbonitrile] |  | IC50 [1]: 20 nM
Cc1c(F)c(-c2c(-c3ccc4c(=O)[nH]nc(CN)c4c3)cnn2C)c(C#N)c2cc(Cl)cnc12 (atropisomer, axis not shown; (P)) [Example 16-33] |  | IC50 [1]: 626 nM
COCc1ccc2c(C#N)c(-c3c(-c4ccc5c(=O)[nH]nc(CN)c5c4)cnn3C)sc2c1 [Example 4-271, 2-(4-(4-(aminomethyl)-1-oxo-1,2-dihydrophthalazin-6-yl)-1-methyl-1H-pyrazol-5-yl)-6-(methoxymethyl)benzo[b]thiophene-3-carbonitrile] |  | IC50 ([1]; Homo sapiens, HCT-116, 240 h): 289 nM
Cn1ncc(-c2ccc3c(=O)[nH]nc(CN)c3c2)c1-c1c(C#N)cc2ncccc2c1Cl (atropisomer, axis not shown; (M)) [Example 16-86, (M)-6-(4-(4-(aminomethyl)-1-oxo-1,2-dihydrophthalazin-6-yl)-1-methyl-1H-pyrazol-5-yl)-5-chloroquinoline-7-carbonitrile] |  | IC50 [1]: 183 nM
Cn1ncc(-c2ccc3c(=O)[nH]nc(CN)c3c2)c1-c1cccc2c1COCC2(C)O (atropisomer, axis not shown; (P)) [Example 16-104, (P)-4-(aminomethyl)-6-(5-(4-hydroxy-4-methylisochroman-8-yl)-1-methyl-1H-pyrazol-4-yl)phthalazin-1(21)-one] |  | IC50 [1]: 3450 nM
Cn1ncc(-c2ccc3c(=O)[nH]nc(CN)c3c2)c1-c1cc2ccccn2c1C#N [Example 4-227, 2-(4-(4-(aminomethyl)-1-oxo-1,2-dihydrophthalazin-6-yl)-1-methyl-1H-pyrazol-5-yl)indolizine-3-carbonitrile] |  | IC50 [1]: 2370 nM
Cn1ncc(-c2ccc3c(=O)[nH]nc(CN)c3c2)c1-c1c(C#N)cc2ncccc2c1Cl (atropisomer, axis not shown; (P)) [Example 16-85, (P)-6-(4-(4-(aminomethyl)-1-oxo-1,2-dihydrophthalazin-6-yl)-1-methyl-1H-pyrazol-5-yl)-5-chloroquinoline-7-carbonitrile] |  | IC50 [1]: 4380 nM
Cn1ncc(-c2ccc3c(=O)[nH]nc(CN)c3c2)c1-c1c(C(F)F)cc2ccccc2c1C#N (single isomer, unassigned) [Example 16-129, (P)-2-(4-(4-(aminomethyl)-1-oxo-1,2-dihydrophthalazin-6-yl)-1-methyl-1H-pyrazol-5-yl)-3-(difluoromethyl)-1-naphthonitrile] | 5.28 | 
Cn1ncc(-c2ccc3c(=O)[nH]nc(CN)c3c2)c1-c1c(F)cc(S(F)(F)(F)(F)F)cc1C#N (atropisomer, axis not shown; (P)) [Example 16-133, (P)-2-(4-(4-(aminomethyl)-1-oxo-1,2-dihydrophthalazin-6-yl)-1-methyl-1H-pyrazol-5-yl)-3-fluoro-5-(pentafluoro-16-sulfanyl)benzonitrile] | 5.97 | 
Cn1ncc(-c2cc3c(CN)n[nH]c(=O)c3s2)c1-c1ccc2ccccc2c1C#N [Example 17-7, 2-(4-(4-(aminomethyl)-7-oxo-6,7-dihydrothieno[2,3-d]pyridazin-2-yl)-1-methyl-1H-pyrazol-5-yl)-1-naphthonitrile] | 5.64 | 
Cn1ncc(-c2cc(C(=O)C(F)F)c3c(=O)[nH]nc(CN)c3c2)c1-c1sc2ccccc2c1C#N [Example 15-9, 2-(4-(4-(aminomethyl)-8-(2,2-difluoro-acetyl)-1-oxo-1,2-dihydrophthalazin-6-yl)--methyl-1H-pyrazol-5-yl)benzo[b]-thiophene-3-carbonitrile] | 5.90 | 
Cn1ncc(-c2ccc3c(=O)[nH]nc(CN)c3c2)c1-c1c(C2COC2)ccc2c1COC2 (atropisomer, axis not shown; (M)) [Example 16-138, (M)-4-(aminomethyl)-6-(1-methyl-5-(5-(oxetan-3-yl)-1,3-dihydroisobenzofuran-4-yl)-1H-pyrazol-4-yl)phthalazin-1(2H)-one] |  | pIC50 (PRMT5/MEP50 complex; read-out: IC50 + 2 μM MTA, in the presence of 2 μM MTA): < 5.00
Cn1ncc(-c2ccc3c(=O)[nH]nc(CN)c3c2)c1-c1c(Cl)ccc(OC2CC2)c1C#N (atropisomer, axis not shown; (M)) [Example 16-132, (M)-2-(4-(4-(aminomethyl)-1-oxo-1,2-dihydrophthalazin-6-yl)-1-methyl-1H-pyrazol-5-yl)-3-chloro-6-cyclopropoxybenzonitrile] | 6.60 | 
Cn1ncc(-c2ccc3c(=O)[nH]nc(CN)c3c2)c1-c1c(C#N)cc2[nH]cnc2c1Cl (atropisomer, axis not shown; (M)) [Example 16-115, (M)-5-(4-(4-(aminomethyl)-1-oxo-1,2-dihydrophthalazin-6-yl)-1-methyl-1H-pyrazol-5-yl)-4-chloro-1H-benzo[d]imidazole-6-carbonitrile] | 5.06 | 
C[C@H](N)c1n[nH]c(=O)c2ccc(-c3cnn(C)c3-c3ccc4ccccc4c3C#N)nc12 [Example 20-2] | 6.70 | 
Cc1c(F)c(-c2c(-c3cc(C)c4c(=O)[nH]nc(CN)c4c3)cnn2C)c(C#N)c2cc(Cl)cnc12 (single isomer, unassigned) [Example 16-108, (M)-6-(4-(4-(aminomethyl)-8-methyl-1-oxo-1,2-dihydrophthalazin-6-yl)-1-methyl-1H-pyrazol-5-yl)-3-chloro-7-fluoro-8-methylquinoline-5-carbonitrile] | 8.30 | 
Cn1ncc(-c2ccc3c(=O)[nH]nc(CN)c3c2)c1-c1c(F)cc(S(F)(F)(F)(F)F)cc1C#N (atropisomer, axis not shown; (M)) [Example 16-134, (M)-2-(4-(4-(aminomethyl)-1-oxo-1,2-dihydrophthalazin-6-yl)-1-methyl-1H-pyrazol-5-yl)-3-fluoro-5-(pentafluoro-16-sulfanyl)benzonitrile] | 6.02 | 
Cc1cc2ccccc2c(C#N)c1-c1c(-c2ccc3c(=O)[nH]nc(CN)c3c2)cnn1C (single isomer, unassigned) [Example 12-15A] | 5.62 | 
Cn1ncc(-c2ccc3c(=O)[nH]nc(CN)c3c2)c1-c1c(C(F)F)cc2ccccc2c1C#N (single isomer, unassigned) [Example 16-130, (M)-2-(4-(4-(aminomethyl)-1-oxo-1,2-dihydrophthalazin-6-yl)-1-methyl-1H-pyrazol-5-yl)-3-(difluoromethyl)-1-naphthonitrile] | 7.04 | 
Cn1ncc(-c2ccc3c(=O)[nH]nc(CN)c3c2)c1-c1c(Cl)cc2ccccc2c1C#N (single isomer, unassigned) [Example 16-128, (M)-2-(4-(4-(aminomethyl)-1-oxo-1,2-dihydrophthalazin-6-yl)-1-methyl-1H-pyrazol-5-yl)-3-chloro-1-naphthonitrile] | 7.19 | 
Cn1ncc(-c2ccc3c(=O)[nH]nc(CN)c3c2)c1-c1ccc2n1C(=O)CCC2 [Example 4-278, 4-(aminomethyl)-6-(1-methyl-5-(5-oxo-5,6,7,8-tetrahydroindolizin-3-yl)-1H-pyrazol-4-yl)phthalazin-1(2H)-one] | 6.00 | 
Cn1ncc(-c2ccc3c(=O)[nH]nc(CN)c3c2)c1-c1c(Cl)c(Cl)cc(OC2CC2)c1C#N (single isomer, unassigned) [Example 16-123, (P)-2-(4-(4-(aminomethyl)-1-oxo-1,2-dihydrophthalazin-6-yl)-1-methyl-1H-pyrazol-5-yl)-3,4-dichloro-6-cyclopropoxybenzonitrile] | 5.40 | 
